The record followed here is ChEMBL document CHEMBL1201862, “PubChem BioAssay data set” (2004).

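Method: 48-hour compound exposure of cells in 96-well plates, five concentrations, linear interpolation of endpoints. At the GI50, growth is halved.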 Calls of active or inactive are those of the source. Rule as the data show it: active = GI50 up to about 1.1 µM and inactive = higher.

Among the test systems are 786-0; CAKI-1; EKVX; HCT-116; HCT-15; HOP-62; HT-29; Hs-578T; IGROV-1; K562; MCF7; Malme-3M; NCI/ADR-RES; PC-3; SR; TK-10; UACC-62; UO-31; CCRF-CEM; SNB-75.
Holding throughout (experiment): NCI-60 cell line screen, 48 h

`C=CCSC1=N/C(=C\c2cccs2)C(=O)N1CC=C`: the GI50 with 786-0 is 45.4 µM (inactive); in the assay with CAKI-1, > 100 µM (inactive); with EKVX, 19.2 µM (inactive); in the assay with HCT-116 it was 32.7 µM (inactive); with HCT-15 it was 66.1 µM; with HOP-62 it was > 100 µM (inactive). In addition, the GI50 in the assay with HT-29 was 32.8 µM (inactive); with Hs-578T, > 100 µM (inactive); with IGROV-1, > 100 µM (inactive); with K562, 29.4 µM (inactive); with MCF7, 27.3 µM (inactive); in the assay on Malme-3M it was > 100 µM (inactive). In addition, the GI50 was 75.2 µM (inactive) in the assay on NCI/ADR-RES; 33.7 µM (inactive) in the assay with PC-3; 32.5 µM (inactive) in the assay on SR; > 100 µM (inactive) with TK-10; 63.2 µM (inactive) with UACC-62; 37.4 µM (inactive) in the assay with UO-31.
As for `CC(=O)NC1C(OCC(=O)NC(C)C(=O)NC(CCC(=O)NCCCCCNc2ccc([N+](=O)[O-])c3[nH]c4ccccc4c(=O)c23)C(N)=O)C(O)C(CO)OC1(C)OCc1ccccc1` (configuration not stated), the GI50 in the assay with 786-0 is 13 µM (inactive); with CAKI-1 it was > 50 µM (inactive); with CCRF-CEM, 3.75 µM (inactive); with EKVX, > 50 µM (inactive); with HCT-116, 19.4 µM (inactive); in the assay on HCT-15, over 50 µM. The GI50 in the assay with HOP-62 was 14.8 µM (inactive); with HT-29, 38.6 µM (inactive); in the assay on Hs-578T, 19.5 µM (inactive); in the assay on IGROV-1 it was > 50 µM (inactive); in the assay on K562, 4.5 µM (inactive); in the assay with MCF7 it was > 50 µM (inactive). Besides, the GI50 in the assay with Malme-3M is 12 µM (inactive); with NCI/ADR-RES, > 50 µM (inactive); in the assay with PC-3, > 50 µM (inactive); with SNB-75 it was 24.8 µM (inactive); in the assay on TK-10 it was 24 µM (inactive); in the assay with UACC-62, > 50 µM (inactive). Further, the GI50 in the assay with UO-31 was > 50 µM (inactive).
Turning to `CC1CNC(c2ccc(CN3CCC(C4CCN(Cc5ccc(C6=NC(C)CN6)cc5)CC4)CC3)cc2)=N1` (configuration not stated), the GI50 is 19.1 µM (inactive) in the assay on 786-0; 38.8 µM (inactive) in the assay on CAKI-1; 13.9 µM (inactive) in the assay on CCRF-CEM; 21.7 µM (inactive) in the assay on EKVX; 17.9 µM (inactive) in the assay on HCT-116; 27.5 µM in the assay with HCT-15. Moreover, the GI50 in the assay with HOP-62 was 14.9 µM (inactive); in the assay with HT-29, 18.5 µM (inactive); in the assay on Hs-578T it was 18.6 µM (inactive); in the assay with IGROV-1 it was 37.2 µM (inactive); with K562, 16.7 µM (inactive); with MCF7, 17 µM (inactive). In addition, the GI50 was 23.9 µM (inactive) in the assay on Malme-3M; 34.4 µM (inactive) in the assay with NCI/ADR-RES; 17.7 µM (inactive) with PC-3; 16.6 µM (inactive) with SNB-75; 22.4 µM (inactive) in the assay on TK-10; 19.9 µM (inactive) in the assay on UACC-62. For the same molecule, in the assay on UO-31, the GI50 was 26.5 µM (inactive).
In the case of `CN(C)CCCN1c2ccccc2CCc2cc([N+](=O)[O-])ccc21`, the GI50 was 24.5 µM (inactive) with 786-0; 26.8 µM (inactive) with CAKI-1; 33.9 µM (inactive) in the assay with EKVX; 20.5 µM (inactive) in the assay with HCT-116; 34.4 µM in the assay on HCT-15; 21.8 µM (inactive) in the assay with HOP-62. In addition, the GI50 with HT-29 was 21.4 µM (inactive); in the assay on Hs-578T, 31.8 µM (inactive); in the assay with IGROV-1 it was 20.3 µM (inactive); in the assay on K562, 27.2 µM (inactive); in the assay with MCF7, 27.3 µM (inactive); with Malme-3M, 18.8 µM (inactive). For the same molecule, the GI50 in the assay with NCI/ADR-RES is 26.9 µM (inactive); with PC-3 it was 25.4 µM (inactive); in the assay on SR, 32.1 µM (inactive); in the assay on TK-10 it was 28.5 µM (inactive); in the assay with UACC-62, 14.5 µM (inactive); with UO-31 it was 22.2 µM (inactive).
Consider `CC[C@H]1C=CCC[C@@]2(C[C@@H]3CC[C@@H]4[C@H](C(=O)OCCCCCCCCCCCCCCCC(=O)N(CCCN)C[C@@H](O)CCN)[C@]5(CCC[C@@H](C)O5)NC(=[N+]34)N2)O1`, for which the GI50 is 0.143 µM (active) in the assay on 786-0; 0.0528 µM (active) in the assay on CAKI-1; 0.897 µM (active) in the assay with EKVX; 0.286 µM (active) in the assay on HCT-116; 0.41 µM with HCT-15; 1.13 µM (inactive) with HOP-62. Besides, the GI50 with HT-29 is 0.299 µM (active); with Hs-578T, 1.21 µM (inactive); in the assay with IGROV-1 it was 0.239 µM (active); in the assay with K562, 0.236 µM (active); in the assay with MCF7 it was 0.46 µM (active); in the assay with Malme-3M, 0.245 µM (active). Besides, the GI50 in the assay with NCI/ADR-RES is 0.733 µM (active); in the assay with PC-3, 0.385 µM (active); in the assay on SR, 0.0802 µM (active); in the assay on TK-10, 1.44 µM (inactive); with UACC-62, 0.0678 µM (active); with UO-31, 0.337 µM (active).
`Cc1ccc(S(=O)(=O)Nn2c(O)c(C#N)c(-c3ccc(N(C)C)cc3)c(C#N)c2=O)cc1`: the GI50 in the assay on 786-0 is > 50 µM (inactive); with CAKI-1, > 50 µM (inactive); in the assay on CCRF-CEM, > 50 µM (inactive); in the assay on EKVX it was > 50 µM (inactive); with HCT-116, > 50 µM (inactive); in the assay on HCT-15, over 50 µM. Further, the GI50 in the assay on HOP-62, with HT-29, in the assay with Hs-578T, with IGROV-1, in the assay with K562 and in the assay with MCF7 was > 50 µM (inactive) each time. In addition, the GI50 with Malme-3M was > 50 µM (inactive); in the assay with NCI/ADR-RES it was > 50 µM (inactive); in the assay with PC-3 it was > 50 µM (inactive); in the assay with SNB-75, > 50 µM (inactive); in the assay on TK-10 it was > 50 µM (inactive); in the assay on UACC-62, 19.8 µM (inactive).
As to `CC(C)C(=O)CC(Sc1ccc(N)cc1)c1ccccc1` (configuration not stated), the GI50 in the assay with 786-0 is 28.8 µM (inactive); in the assay with CAKI-1 it was 34.3 µM (inactive); in the assay on CCRF-CEM it was 17.1 µM (inactive); in the assay on HCT-116 it was 13.3 µM (inactive); in the assay on HCT-15, 27.4 µM; in the assay with HOP-62, 37.1 µM (inactive). Further, the GI50 in the assay on HT-29 was 27.5 µM (inactive); in the assay on Hs-578T, 21.7 µM (inactive); with IGROV-1 it was 44.1 µM (inactive); in the assay with K562, 25.4 µM (inactive); in the assay on MCF7 it was 18.2 µM (inactive); with Malme-3M, 35.1 µM (inactive). The GI50 in the assay with NCI/ADR-RES is 33.7 µM (inactive); with PC-3 it was 35.4 µM (inactive); in the assay on SNB-75, 32.6 µM (inactive); in the assay on TK-10, 69.8 µM (inactive); with UACC-62, 19 µM (inactive); with UO-31 it was 29.2 µM (inactive).
Take `O=C(c1ccccc1Cl)n1oc2ccccc2c1=O`: the GI50 in the assay with 786-0 was 77.1 µM (inactive); in the assay on CAKI-1, 29.7 µM (inactive); with CCRF-CEM, 27.5 µM (inactive); in the assay on EKVX, > 100 µM (inactive); with HCT-116, 52.8 µM (inactive); in the assay on HCT-15 it was 85.5 µM. Besides, the GI50 is > 100 µM (inactive) in the assay with HOP-62; 60.4 µM (inactive) in the assay with HT-29; > 100 µM (inactive) in the assay on Hs-578T; 69.2 µM (inactive) in the assay on IGROV-1; 7.62 µM (inactive) in the assay on K562; 51.1 µM (inactive) in the assay with MCF7. Besides, the GI50 in the assay on Malme-3M is > 100 µM (inactive); in the assay on NCI/ADR-RES it was > 100 µM (inactive); in the assay with PC-3, > 100 µM (inactive); in the assay with SNB-75 it was 51.1 µM (inactive); in the assay on TK-10 it was > 100 µM (inactive); in the assay on UACC-62, > 100 µM (inactive). Moreover, the GI50 in the assay with UO-31 was > 100 µM (inactive).
